# Measured values taken from patent US5202319A, “Substituted 3-amino-2,3,4,5-tetrahydro-1-aryloxy-3-benzazepines” (Hoechst-Roussel Pharmaceuticals Inc., priority 1991, dated 1993).
# Structures can show the parent of a compound that is named as a salt.
# Legend:
# [1] = system: serotonin (5HT) uptake; assay: 3H-Serotonin Uptake in Rat Whole Brain and Hypothalamic Synaptosomes; type: biochemical; conditions: 50 nM 3H-5HT, 37° C., 5 minutes, log-probit analysis, read-out: Inhibition of ^3 H-serotonin Uptake IC50
# Experimental: A. Animals: Male CR Wistar rats (100-125 g).
# 3. […] This is used to dilute the specific activity of radiolabeled 5HT.
# The final desired concentration of ^3 H-5HT in the assay is 50 nM. The dilution factor is 0.8.
# Male Wistar rats are decapitated and the brain rapidly removed. […] Homogenization should be done with 4-5 up and down strokes at medium speeds to minimize synaptosome lysis. […] The supernatant (S1) is decanted and is used for uptake experiments.
# Tubes are incubated at 37° C. under a 95% O2 /5% CO2 atmosphere for 5 minutes. For each assay, 3 tubes are incubated with 20 μl of vehicle at 0° C. in an ice bath. After incubation all tubes are immediately centrifuged at 4000 g for 10 minutes. The supernatant fluid is aspirated and the pellets dissolved by adding 1 ml of solubilizer (Triton X-100+50% EtOH, 1:4 v/v). […] Active uptake is the difference between cpm at 37° C. and 0° C. […] IC50 values are derived from log-probit analysis.
# [2] = system: 5HT uptake; conditions: cited from earlier work
# [3] = system: [^3 H]-5HT transport; conditions: CNS tissue; cited from earlier work
# [4] = in vivo; cited from earlier work
# [5] = system: 5HT uptake sites; conditions: in vitro; cited from earlier work
compound,measurement,setting,value
"COc1cc2c(cc1OC)C(Oc1ccccc1)CN(N)CC2 (stereo not drawn) [3-Amino-7,8-dimethoxy-1-phenoxy-2,3,4,5-tetrahydro-3-benzazepine maleate]",IC50,[1],2.13 µM
CN(C)C/C=C(/c1ccc(Br)cc1)c1cccnc1 [zimelidine],effects on 5HT uptake,[2],fairly selective effects on 5HT uptake
C[C@@H]1O[C@@H](O[C@H]2C[C@@H](O)[C@]3(CO)[C@H]4[C@H](O)C[C@]5(C)[C@@H](C6=CC(=O)OC6)CC[C@]5(O)[C@@H]4CC[C@]3(O)C2)[C@H](O)[C@H](O)[C@H]1O [ouabain],inhibition of [^3 H]-5HT transport,[3],inhibited
O=c1n(CCCN2CCN(c3cccc(Cl)c3)CC2)nc2ccccn12 [Trazodone],clinical effectiveness,[4],clinically effective antidepressants
CN(C)CCCN1c2ccccc2CCc2ccccc21 [[^3 H]-imipramine],[^3 H]-imipramine binding,[5],labels 5HT uptake sites
"NN1CCc2ccccc2C(Oc2ccc(C(F)(F)F)cc2)C1 (stereo not drawn) [3-Amino-2,3,4,5-tetrahydro-1-(4-trifluoromethylphenoxy)-3-benzazepine maleate]",IC50,[1],9.36 µM
